{"source": "paper PMC5626944", "about": "(Frontiers in Pharmacology, 2017)", "key": {"[1]": {"tested_on": "Glycine, Strychnine-sensitive", "test": "NovaScreen competition binding", "conditions": "1 µM"}, "[2]": {"tested_on": "Calcium Channel, Type N", "test": "NovaScreen competition binding", "conditions": "1 µM"}, "[3]": {"tested_on": "Nitric Oxide, NOS (Neuronal-Binding)", "test": "NovaScreen competition binding", "conditions": "1 µM"}, "[4]": {"conditions": "0.2 mg/kg ip; for [TC299423] in assay: brain; for Blood measurements: [TC299423]: serum", "protocol": "Uninjected mice served as controls (n = 3 for each group). Trunk blood was collected into heparinized 1.5 mL polyethylene tubes. The tubes were centrifuged and the serum was collected. […] The cerebral cortex was dissected, placed in 1 mL of cold water, homogenized, and diluted to 3 mL with cold water. Epibatidine saturation curves were constructed for the cortical samples using eight concentrations of [^125I]epibatidine measured in triplicate (6, 12, 25, 50, 100, 200, 400, and 800 pM). The final assay volume was […] 50 μL of homogenate was added to each sample. Blanks included 100 μM nicotine. Samples were incubated at room temperature overnight. The samples were filtered, washed and counted. Inhibition of [^125I]epibatidine (325 pM) binding was measured by adding 1, 2, 5, 10, or 20 μL of serum to samples. The washed, particulate fraction from C57BL/6 cortex was the source of the binding sites."}, "[5]": {"tested_on": "Serotonin, 5HT4", "test": "NovaScreen competition binding", "conditions": "1 µM"}, "[6]": {"target": "T1, α4-GFPβ2DM nAChRs (Mus musculus, UniProt O70174+Q9ERK7, L349M/R365A/R366A/R368A)", "T1 construct": "expressed in transfected cells; host or cells: mouse neuroblastoma neuro-2a (ATCC CCL-131)", "T1 sequence (O70174 31-629)": "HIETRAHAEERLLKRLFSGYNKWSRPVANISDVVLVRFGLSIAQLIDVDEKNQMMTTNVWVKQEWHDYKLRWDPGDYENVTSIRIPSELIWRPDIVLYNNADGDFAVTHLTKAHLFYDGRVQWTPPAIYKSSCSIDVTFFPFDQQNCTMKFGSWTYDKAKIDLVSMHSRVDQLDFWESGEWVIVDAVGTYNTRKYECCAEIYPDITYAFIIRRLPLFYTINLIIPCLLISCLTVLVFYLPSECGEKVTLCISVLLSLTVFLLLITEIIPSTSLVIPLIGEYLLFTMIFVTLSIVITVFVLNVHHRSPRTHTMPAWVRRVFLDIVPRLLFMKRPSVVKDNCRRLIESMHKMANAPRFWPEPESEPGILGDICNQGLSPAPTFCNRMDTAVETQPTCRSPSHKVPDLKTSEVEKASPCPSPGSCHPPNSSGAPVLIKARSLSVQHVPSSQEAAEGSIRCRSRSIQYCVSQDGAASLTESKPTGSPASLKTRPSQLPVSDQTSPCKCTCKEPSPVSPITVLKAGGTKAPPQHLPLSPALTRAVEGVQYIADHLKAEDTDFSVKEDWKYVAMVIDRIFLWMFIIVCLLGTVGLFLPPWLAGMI", "T1 sequence (Q9ERK7 26-501 L349M/R365A/R366A/R368A)": "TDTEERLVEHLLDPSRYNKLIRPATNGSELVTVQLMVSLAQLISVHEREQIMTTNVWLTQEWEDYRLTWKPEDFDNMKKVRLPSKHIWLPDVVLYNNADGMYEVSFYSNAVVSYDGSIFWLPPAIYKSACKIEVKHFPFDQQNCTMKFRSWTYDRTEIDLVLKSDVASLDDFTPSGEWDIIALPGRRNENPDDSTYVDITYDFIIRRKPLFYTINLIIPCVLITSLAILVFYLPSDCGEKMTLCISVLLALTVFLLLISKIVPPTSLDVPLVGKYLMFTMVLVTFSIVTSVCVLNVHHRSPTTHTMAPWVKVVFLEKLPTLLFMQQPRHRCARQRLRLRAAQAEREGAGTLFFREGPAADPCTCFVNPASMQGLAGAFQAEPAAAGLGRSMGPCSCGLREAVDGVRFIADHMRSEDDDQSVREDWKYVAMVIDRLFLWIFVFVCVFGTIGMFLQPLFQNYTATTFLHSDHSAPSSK", "test": "Whole-cell patch-clamp recordings in transfected neuro-2a cells", "format": "cell-based", "conditions": "α4β2 single component, transfected in Neuro-2a cells", "protocol": "(§1) Cells were transfected with 500 ng of: α4-GFP and β2DM or α6-GFP, β2DM, and β3 nAChR subunits.\n(§2) For the patch-clamp experiments, we used mouse neuro-2a cells. […] Transfected cells displaying eGFP fluorescence were identified for patching using an inverted epifluorescence microscope. […] The resistance of the patch pipettes was 2–4 MΩ. The extracellular solution contained (in mM): 140 NaCl, 5 KCl, 2 CaCl2, 1 MgCl2, 10 HEPES, and 10 glucose (320 mOsm, pH set to 7.3 with Tris-base). […] The data were sampled at 10 kHz and low-pass filtered at 2 kHz prior to digitization. All experiments were performed at 24°C and the recording chamber was continually perfused with extracellular solution. To avoid receptor desensitization by repetitive agonist application, agonists were applied at intervals ≥3 min. An Octaflow II superfusion system (ALA Scientific Instruments) was used to apply the agonist for concentration-response studies. Applications were 500 ms at 6 psi. […] Following the collection of the full concentration range an additional test pulse was repeated to assess accumulated desensitization.\n(§3) Data were fit to a single Hill term using Origin 10 software. Data are expressed as mean ± SEM."}, "[7]": {"target": "T2, α6-GFPβ2DMβ3 nAChRs (Mus musculus, UniProt Q9ERK7+Q9R0W9, L349M/R365A/R366A/R368A)", "T2 construct": "expressed in transfected cells; host or cells: mouse neuroblastoma neuro-2a (ATCC CCL-131)", "T2 sequence (Q8BMN3 31-464, stated change not applied)": "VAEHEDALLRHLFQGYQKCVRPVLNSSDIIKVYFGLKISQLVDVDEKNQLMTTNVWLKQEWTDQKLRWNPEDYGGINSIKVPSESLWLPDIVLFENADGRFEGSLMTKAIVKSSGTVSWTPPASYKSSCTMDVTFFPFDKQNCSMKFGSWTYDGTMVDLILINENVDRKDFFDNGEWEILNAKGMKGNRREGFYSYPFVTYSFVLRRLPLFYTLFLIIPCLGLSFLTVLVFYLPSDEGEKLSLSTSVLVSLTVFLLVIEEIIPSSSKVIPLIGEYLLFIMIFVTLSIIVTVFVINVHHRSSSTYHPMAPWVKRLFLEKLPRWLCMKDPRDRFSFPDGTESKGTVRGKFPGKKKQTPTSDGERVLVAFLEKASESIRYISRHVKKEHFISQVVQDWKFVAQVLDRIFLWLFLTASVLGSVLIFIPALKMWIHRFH", "T2 sequence (Q9R0W9 31-494)": "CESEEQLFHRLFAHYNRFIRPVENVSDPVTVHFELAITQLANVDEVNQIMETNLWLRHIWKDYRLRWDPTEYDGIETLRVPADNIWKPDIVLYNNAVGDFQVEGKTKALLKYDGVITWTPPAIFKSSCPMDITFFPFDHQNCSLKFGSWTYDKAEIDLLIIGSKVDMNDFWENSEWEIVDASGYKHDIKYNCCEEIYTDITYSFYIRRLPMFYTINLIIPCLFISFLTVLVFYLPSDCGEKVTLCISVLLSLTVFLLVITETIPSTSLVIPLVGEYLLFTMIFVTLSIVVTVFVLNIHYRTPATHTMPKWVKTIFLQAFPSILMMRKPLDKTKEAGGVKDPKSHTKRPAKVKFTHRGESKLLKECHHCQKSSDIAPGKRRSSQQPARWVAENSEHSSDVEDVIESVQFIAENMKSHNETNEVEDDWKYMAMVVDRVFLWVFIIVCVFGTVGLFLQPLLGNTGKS", "T2 sequence (Q9ERK7 26-501 L349M/R365A/R366A/R368A)": "as the sequence (Q9ERK7 26-501 L349M/R365A/R366A/R368A) above", "test": "Whole-cell patch-clamp recordings in transfected neuro-2a cells", "format": "cell-based", "protocol": "as §1, §2, §3"}, "[8]": {"tested_on": "T3, Serotonin, 5HT3", "T3 construct": "endogenous in cells; host or cells: N1E-115 (mouse neuroblastoma)", "test": "NovaScreen competition binding", "design": "species or system mouse", "conditions": "1 µM", "text": "Assays included the nicotinic drug [^3H]epibatidine binding to α-bungarotoxin-insensitive nAChRs, the 5-HT3 inhibitor [N-methyl-^3H]GR65630 to mouse receptors in N1E-115 cells, and human receptors expressed in a clonal cell line. Other assays included monoamine oxidase A, monoamine oxidase B, 5-HT transporter, norepinephrine transporter, and dopamine transporter, as well as other. G-protein-coupled receptors, ion channels, enzymes, and transporters."}, "[9]": {"tested_on": "Norepinephrine Transporter", "test": "NovaScreen competition binding", "conditions": "1 µM"}, "[10]": {"tested_on": "T4, Kinase, Protein, PKA (h)", "T4 construct": "PerkinElmer – Caliper Life Sciences (NovaScreen service)", "test": "NovaScreen enzyme assay", "format": "biochemical, human", "conditions": "1 µM"}, "[11]": {"tested_on": "Serotonin, 5HT2C", "test": "NovaScreen competition binding", "conditions": "1 µM"}, "[12]": {"tested_on": "T5, Adrenergic, Alpha 2A (h)", "T5 construct": "PerkinElmer – Caliper Life Sciences (NovaScreen service)", "test": "NovaScreen competition binding", "design": "species or system human", "conditions": "1 µM"}, "[13]": {"target": "α6β2* nAChRs (Mus musculus, UniProt Q9ERK7+Q9R0W9)", "sequence (Q9R0W9 31-494)": "as the sequence (Q9R0W9 31-494) above", "sequence (Q9ERK7 26-501)": "as the sequence (Q9ERK7 26-501 L349M/R365A/R366A/R368A) above, with M324L, A340R, A341R, A343R counted along it", "sequence (Q8BMN3 31-464 partner)": "as the sequence (Q8BMN3 31-464, stated change not applied) above", "test": "biochemical", "format": "biochemical", "conditions": "for EC50: read-out: Neurotransmitter release EC50 (converted); for Emax: relative to nicotine", "protocol": "Regions of interest were dissected from fresh mouse brains and homogenized in ice-cold isotonic sucrose (0.32 M), buffered with HEPES (5 mM, pH 7.5). The suspension was centrifuged at 12,000 × g for 20 min. The pellet was re-suspended in the appropriate uptake buffer ([Grady et al., 2001]; [Salminen et al., 2004]; [Marks et al., 2006]) and used immediately.\nSuperfusion was carried out at 22°C using a buffer containing: NaCl, 128 mM; KCl, 2.4 mM; CaCl2, 3.2 mM; MgSO4, 1.2 mM; KH2PO4, 1.2 mM; HEPES, 25 mM; glucose, 10 mM; ascorbic acid, 1 mM; pargyline, 0.01 mM; 0.1% BSA; nomifensine, 1 μM (to prevent the re-uptake of dopamine); atropine, 1 μM (to prevent muscarinic receptor activation); pH 7.5. Superfusion proceeded at 0.7 mL/min for 10 min before stimulation with agonist for 20 s. Selected aliquots were perfused with α-CtxMII (50 nM) for 3 min immediately before stimulation. This concentration of α-CtxMII was sufficient to inhibit α6β2^∗-nAChRs in the mouse striatum ([Salminen et al., 2004], [2007]). Fractions (∼0.1 mL) were collected into 96-well plates at 10 s intervals for 4 min (starting ∼1 min before stimulation). After adding 0.15 mL of Optiphase SuperMix scintillation cocktail, radioactivity was measured using a 1450 MicroBeta TriLux counter (Perkin Elmer Life Sciences)."}}, "note": "Read-outs that look alike come from different tables or passages of the source.", "data": [{"compound": "C1=C(/c2cncnc2)CCCNCC/1", "note": "[TC299423, (E)-5-(pyrimidin-5-yl)-1,2,3,4,7,8-hexahydroazocine]", "values": [{"measurement": "Hit", "setting": "[1]", "result": "FALSE"}, {"measurement": "Inhibition", "setting": "[1]; [3H]Strychnine", "result": -7.63, "unit": "%"}, {"measurement": "Hit", "setting": "[2]", "result": "FALSE"}, {"measurement": "Inhibition", "setting": "[2]; [125I]-Conotoxin GVIA", "result": -0.60, "unit": "%"}, {"measurement": "Hit", "setting": "[3]", "result": "FALSE"}, {"measurement": "Inhibition", "setting": "[3]; [3H]NOARG", "result": -10.86, "unit": "%"}, {"measurement": "Duration of brain penetration and availability to nAChRs", "setting": "[4]", "result": "≥ 20", "unit": "min"}, {"measurement": "[TC299423] in brain", "setting": "[4]; 5 min", "result": "45 ± 25", "unit": "pmol/mg"}, {"measurement": "[TC299423] in brain", "setting": "[4]; 10 min", "result": "88 ± 18", "unit": "pmol/mg"}, {"measurement": "[TC299423] in brain", "setting": "[4]; 20 min", "result": "73 ± 4.0", "unit": "pmol/mg"}, {"measurement": "[TC299423] in assay", "setting": "[4]; 5 min", "result": "2.2 ± 1.1", "unit": "nM"}, {"measurement": "[TC299423] in assay", "setting": "[4]; 10 min", "result": "4.4 ± 0.9", "unit": "nM"}, {"measurement": "[TC299423] in assay", "setting": "[4]; 20 min", "result": "3.7 ± 0.2", "unit": "nM"}, {"measurement": "Blood measurements: [TC299423]", "setting": "[4]; 5 min", "result": "250 ± 50", "unit": "nM"}, {"measurement": "Blood measurements: [TC299423]", "setting": "[4]; 10 min", "result": "370 ± 70", "unit": "nM"}, {"measurement": "Blood measurements: [TC299423]", "setting": "[4]; 20 min", "result": "120 ± 30", "unit": "nM"}, {"measurement": "Hit", "setting": "[5]", "result": "FALSE"}, {"measurement": "Inhibition", "setting": "[5]; [3H]GR 113808", "result": -16.64, "unit": "%"}, {"measurement": "EC50", "setting": "[6]", "result": "100 ± 20", "unit": "nM"}, {"measurement": "EC50", "setting": "[7]; range over patch-clamp recordings and [3H]-dopamine release assays, read-out: EC50 for α6β2* nAChRs", "result": "30 to 60", "unit": "nM"}, {"measurement": "EC50", "setting": "[7]; α6β2β3 transfected in Neuro-2a cells, read-out: Patch clamp EC50", "result": "40 ± 10", "unit": "nM"}, {"measurement": "Hit", "setting": "[8]", "result": "FALSE"}, {"measurement": "Inhibition", "setting": "[8]; [3H]GR 65630", "result": 7.50, "unit": "%"}, {"measurement": "Hit", "setting": "[9]", "result": "FALSE"}, {"measurement": "Inhibition", "setting": "[9]; [3H]Nisoxetine", "result": 23.72, "unit": "%"}, {"measurement": "Hit", "setting": "[10]", "result": "FALSE"}, {"measurement": "Inhibition", "setting": "[10]; substrate Fluorescein-labeled peptide", "result": -5.00, "unit": "%"}, {"measurement": "Hit", "setting": "[11]", "result": "FALSE"}, {"measurement": "Inhibition", "setting": "[11]; [3H]Mesulergine", "result": -2.21, "unit": "%"}, {"measurement": "Hit", "setting": "[12]", "result": "FALSE"}, {"measurement": "Inhibition", "setting": "[12]; [3H]MK-912", "result": 6.75, "unit": "%"}, {"measurement": "EC50", "setting": "[13]; WT striatal synaptosomes", "result": "30 ± 0.006", "unit": "nM"}, {"measurement": "Maximal response, α-CtxMII-sensitive [3H]-dopamine release", "setting": "[13]; calculated from Michaelis–Menten curve fit", "result": "0.93 ± 0.08", "unit": "units"}, {"measurement": "Emax", "setting": "[13]; read-out: Neurotransmitter release % Efficacy, WT striatal synaptosomes", "result": "50 ± 20", "unit": "%"}, {"measurement": "Emax", "setting": "[13]; read-out: Neurotransmitter release % Efficacy, α5KO striatal synaptosomes", "result": "54 ± 14", "unit": "%"}, {"measurement": "EC50", "setting": "[13]; α5KO striatal synaptosomes", "result": 50, "unit": "nM"}]}]}
